# Results reported in USRE39220E1, “Peptide-mediated gene transfer” (Genetic Applications, LLC, priority 1994, dated 2006).
# What was measured:
# Assay type in all cases: cell-based
# [1] = tested on: Mouse fibroblast cell line (L cells); test: Selection of stably transfected cell lines (G418-resistant colonies); settings: G418 400 μg/ml selection, colonies counted two weeks after start of selection, similar with hygromycin
# Text: The DNA or other polynucleotide to be transfected, such as a plasmid containing a gene for a drug resistance marker or coding a protein needed for expression in the host cell, is complexed to a synthetic polypeptide molecule in different weight ratios in an isotonic buffer solution. For example the weight ratio of DNA:polypeptide can be between 1:1 and 10:1, although ratios outside of this range may be evaluated empirically for achieving the objects of the present invention. An isotonic buffer solution such as Hanks buffered salt solution or HEPES buffered saline may be used for complexing DNA to polypeptide.
# (§1) While the complex is formed, the cells that are to be transfected either remain attached to a substratum, such as a tissue culture dish, or are pelleted (for cells that grow in suspension). The cells are treated with a hypertonic primer solution, such as a concentration of 0.3M-0.6M sucrose and 10% PEG in either Tris-HCl or HEPES (pH 7.2) buffered solution, for 3-5 mins at room temperature. The primer solution then is removed.
# After the DNA-polypeptide complex is formed, it is made hypotonic. […]
# Transfected cells are grown in regular growth medium for 48 hours, and then plated in selective medium containing 400 μg/ml of G418. […] The number of G418-resistant colonies was determined two weeks after the initiation of selection. […]
# [2] = tested on: mouse erythroleukemia cell line, C19TK; test: Stable transfection of hematopoietic cells in suspension, hygromycin selection (pDR2); settings: pDR2, hygromycin selection in microtiter plates, plated 48 hours after transfection
# Method: A mouse erythroleukemia cell line, C19TK, also was used as a representative cell line for testing the transfection efficiency of the present invention with respect to hematopoietic cells. The expression vector, pDR2, which carries a hygromycin-resistance gene, was used for these studies, C19TK cells are exquisitely sensitive for the antibiotic hygromycin.
# Briefly, about million cells are spun down and the cell pellet is treated with primer. The cells are then exposed to DNA-polypeptide complex under hypotonic condition. Forty-eight hours after transfection, a known number of cells are plated in microtiter plates with hygromycin. The number of wells with growing population of cells was enumerated to determine the transfection efficiency. The stable transfection efficiency was about 1-5%, as compared to most of the other non-virus-based methods that are very poor. Thus, the method described herein is very efficient for stable transfection efficiency both for hematopoietic and non hematopoietic cell lines. […] See Gilboa, et al. (1986), Miller, et al. (1986), Stuhlmann, et al. (1989), Miller, et al. (1989), and Zwiebel, et al. (1989), each cited above.
# COS cells = test: Transient expression of β-gal reporter gene (CH110) in COS cells; settings: DNA-polypeptide 2.5-5.0 μg, stained 48 hrs after transfection
# Method: as §1
# After the DNA-polypeptide complex is formed, it is made hypotonic. The complex solution is hypotonic when it has a lesser osmotic pressure than a 0.15M or 0.9% solution of NaCl. For example, the complex in isotonic buffer can be made […] hypotonic or 0.075M simply by adding an amount of distilled water that is equal to the volume of the complex in isotonic buffer. The hypotonic complex solution then is added to the cells that have been treated with the primer solution. Cells remain in the hypotonic DNA-polypeptide solution for 3-4 minutes. Fresh medium then is added to the cells to rinse away excess DNA-polypeptide solution. Thereafter, the cells are grown normally.
# Three different cell lines were used to test the efficiency of gene transfer of the new method. Mouse fibroblast cell line (L cells), mouse erythroleukemia cell line (C19TK), and COS cells. The COS cell line was used to establish conditions for transient gene expression. […]
sequence,measurement,setting,value
"PKKKRKVSGGGGGKKKKKKKKKKKK [Peptide-Mediated Gene Transfer, synthetic polypeptide (NLS peptide, neutral hinge, polylysine chain) linked electrostatically to DNA, forming a polypeptide-DNA complex]",Stable Transfection Efficiency,[1],5-10%
same,Stable Transfection Efficiency,[1]; listed as DNA-polypeptide complex,5-10%
same,Stable Transfection Efficiency,[2],1-5%
same,cells positive for the expression of the β-gal reporter gene,COS cells,Forty to fifty
